20 compounds from patent US20210284647A1, “N-(3-(IMIDAZO[1,2-B]PYRIDAZIN-3-YLETHYNYL)-4-METHYLPHENYL)-5-PHENYL-4,5-DIHYDRO-1H-PYRAZOLE-1-CARBOXAMIDE DERIVATIVE, AND PHARMACEUTICAL COMPOSITION CONTAINING SAME AS ACTIVE INGREDIENT FOR TREATING KINASE-RELATED DISEASES” (VORONOIBIO INC., priority 2018, published 2021) can be followed below.

Structures can show the parent of a compound that is named as a salt.

One assay has as its target T1, human GST-RIPK1 (Homo sapiens, UniProt Q13546).
T1 construct: GST; purchased signalchem
T1 sequence (Q13546 1-375 limits assumed): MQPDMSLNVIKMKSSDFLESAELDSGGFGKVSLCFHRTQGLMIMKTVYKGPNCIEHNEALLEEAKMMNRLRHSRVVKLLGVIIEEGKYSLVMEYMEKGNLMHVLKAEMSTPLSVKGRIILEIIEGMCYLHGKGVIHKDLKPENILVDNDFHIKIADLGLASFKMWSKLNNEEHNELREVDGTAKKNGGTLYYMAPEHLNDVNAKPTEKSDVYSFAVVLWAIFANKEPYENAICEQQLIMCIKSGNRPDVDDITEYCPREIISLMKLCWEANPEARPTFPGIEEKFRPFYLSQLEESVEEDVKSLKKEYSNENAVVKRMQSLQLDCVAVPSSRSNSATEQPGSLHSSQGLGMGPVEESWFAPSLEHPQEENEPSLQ
Briefly: RIPK1 inhibitory activity (ADP-Glo kinase assay). The class given is biochemical. To be noted: human GST-RIPK1 10 ng, ATP 50 uM, 25° C. for 4 hours, read-out: Enzyme IC50. The protocol:
The following experiment was performed to evaluate the inhibitory activity of the example compounds according to the present invention against RIPK1 (receptor-interacting serine/threonine protein kinase 1).
The example compound was reacted with the purified human GST-RIPK1 (1375, signalchem) enzyme to evaluate the enzyme inhibitory activity in the following manner. The composition of the reaction buffer used herein was as follows: 40 mM Tris-Hcl pH 7.4, 20 mM MgCl2, 0.5 mg/ml, BSA and 0.5 uM DTT. All the test materials were reacted in the reaction buffer. After reacting human GST-RIPK1 (1375, 10 ng), purified ATP (50 uM) and a specific substrate solution at 25° C. for 4 hours, the enzyme activity was confirmed using an in vitro ADP-Glo™ kinase assay (promega). Luminoscence was measured by reacting the enzyme activity reaction solution, ADP-Glo reaction solution, and enzyme activity detection solution at the ratio of 2:2:1. The degree of enzyme activity inhibition according to the treatment concentration of each compound was calculated based on the fluorescence of the enzyme activity of the solvent control not treated with the compound. At this time, the concentration of each compound inhibiting 50% of the enzyme activity was determined as IC50 (nM). IC50 of each compound was determined with three data sets and calculated using Prism (version 7.01, GraphPad) software.
On the technique in general: In ADP-Glo the light output rises with the ADP produced.

Assay [1] relates to human Jurkat T cells deficient in FADD. As to the kind of experiment: Cell protection effect under apoptosis-inducing condition (TNF-α). Type of assay: cell-based. To be noted: 40 ng of TNF-α, 50 hours, CellTiter-Glo, read-out: I2.I Cell EC50. The protocol:
The cell protection effect of the compounds according to the present invention under the condition of inducing apoptosis by TNF-α was confirmed by […]. An apoptosis inducing factor such as TNF-α was treated to induce apoptosis of human Jurkat T cells deficient in FADD, to which the example compound was treated, and the cell protection effect was confirmed through the following analysis. Jurkat T cells deficient in FADD were cultured using RPMI medium (Hyclone) containing 10% FBS. When performing the test, the cells were seeded in a 96-well plate containing a medium suitable for the cell line at the density of 10,000 cells/well, and cultured in a 37° C. 5% CO2 incubator for 24 hours. Then, each well was treated with 40 ng of TNF-α, and the compounds prepared in the above examples were each treated with a 3-fold concentration gradient with 1 μM as the highest concentration. As the solvent control, dimethyl sulfoxide (DMSO) was treated at the concentration of 0.05% (v/v), which was the same concentration as that used for the compound treatment. Then, the cells were cultured for 50 hours. To confirm the degree of viability of the cells, a mixture provided in CellTiter-Gloe Luminescent Cell Viability Assay Kit (Promega) was added to the culture medium of the cells, followed by further culture at 37° C. for 30 minutes. Then, luminescence fluorescence was measured. The degree of inhibition of apoptosis induction according to the treatment concentration of each compound was calculated based on the fluorescence of the solvent control cells not treated with the compound. At this time, the concentration of each compound inhibiting 50% was determined as EC50 (μM). EC50 of each compound was calculated using Prism (version 7.01, GraphPad) software.
A general note: Cellular ATP, detected with luciferase, serves as a proxy for viable cell number.

As usually defined, the IC50 is the concentration needed to halve the response being measured. For orientation: EC50 means the midpoint of the concentration-response curve.

For the compound `O=C(Nc1cccc(C#Cc2cnc3cccnn23)c1)N1N=CC[C@H]1c1ccccc1` [Example 20, (S)—N-(3-(imidazo[1,2-b]pyridazin-3-ylethynyl)phenyl)-5-phenyl-4,5-dihydro-1H-pyrazole-1-carboxamide hydrochloride], the concentration for half-maximal inhibition (IC50) at human GST-RIPK1 was found to be 0.52 nM. For the same compound, the half-maximal effective concentration (EC50) in assay [1] was 0.021 nM.
As for `O=C(Nc1cccc(C#Cc2cnc3cccnn23)c1)N1N=CC[C@@H]1c1ccccc1` [Example 21, (R)—N-(3-(imidazo[1,2-b]pyridazin-3-ylethynyl)phenyl)-5-phenyl-4,5-dihydro-1H-pyrazole-1-carboxamide hydrochloride], the IC50 at human GST-RIPK1 is greater than 1000 nM. Also, in assay [1], the EC50 was determined as 588 nM.
On to `O=C(Nc1ccc(C#Cc2cnc3cccnn23)cc1)N1N=CCC1c1ccccc1` (stereo not shown) [Example 22, N-(4-(imidazo[1,2-b]pyridazin-3-ylethynyl)phenyl)-5-phenyl-4,5-dihydro-1H-pyrazole-1-carboxamide 2,2,2-trifluoroacetate], for which the IC50 at human GST-RIPK1 was greater than 1000 nM. Further, the EC50 in assay [1] is greater than 1000 nM.
On to `O=C(Nc1cccc(C#Cc2cnc3cccnn23)c1)N1N=CCC1c1cc(F)cc(F)c1` (stereo not shown) [Example 23, 5-(3,5-difluorophenyl)-N-(3-(imidazo[1,2-b]pyridazin-3-ylethynyl)phenyl)-4,5-dihydro-1H-pyrazole-1-carboxamide 2,2,2-trifluoroacetate], for which the half-inhibitory concentration (IC50) at human GST-RIPK1 came out at 32.2 nM. For the same compound, the EC50 in assay [1] was determined as 1.2 nM.
Consider `O=C(Nc1cccc(C#Cc2cnc3cccnn23)c1)N1N=CC[C@H]1c1cc(F)cc(F)c1` [Example 24, (S)-5-(3,5-difluorophenyl)-N-(3-(imidazo[1,2-b]pyridazin-3-ylethynyl)phenyl)-4,5-dihydro-1H-pyrazole-1-carboxamide 2,2,2-trifluoroacetate], for which the half-inhibitory concentration (IC50) on human GST-RIPK1 worked out at 2.76 nM. For the same compound, the concentration giving a half-maximal response (EC50) in assay [1] came out at 0.44 nM.
On to `O=C(Nc1cccc(C#Cc2cnc3cccnn23)c1)N1N=CC[C@@H]1c1cc(F)cc(F)c1` [Example 25, (R)-5-(3,5-difluorophenyl)-N-(3-(imidazo[1,2-b]pyridazin-3-ylethynyl)phenyl)-4,5-dihydro-1H-pyrazole-1-carboxamide 2,2,2-trifluoroacetate], for which the IC50 at human GST-RIPK1 came to 878 nM. In assay [1], the half-maximal effective concentration (EC50) came to 364 nM.
Turning to `O=C(Nc1cccc(C#Cc2cnc3cccnn23)c1)N1N=CCC1c1ccc(C(F)(F)F)cc1` (stereo not shown) [Example 26, N-(3-(imidazo[1,2-b]pyridazin-3-ylethynyl)phenyl)-5-(4-(trifluoromethyl)phenyl)-4,5-dihydro-1H-pyrazole-1-carboxamide 2,2,2-trifluoroacetate], the IC50 at human GST-RIPK1 came to 6.9 nM. In assay [1], the half-maximal effective concentration (EC50) was determined as 201 nM.
As to `COc1ccc(C2CC=NN2C(=O)Nc2cccc(C#Cc3cnc4cccnn34)c2)cc1` (stereo not shown) [Example 27, N-(3-(imidazo[1,2-b]pyridazin-3-ylethynyl)phenyl)-5-(4-methoxyphenyl)-4,5-dihydro-1H-pyrazole-1-carboxamide 2,2,2-trifluoroacetate], on human GST-RIPK1, the half-maximal inhibitory concentration (IC50) came to 2.35 nM. Moreover, the EC50 in assay [1] is 55.4 nM.
`O=C(Nc1cccc(C#Cc2cnc3cccnn23)c1)N1N=CCC1c1cccc(F)c1` (stereo not shown) [Example 28, 5-(3-fluorophenyl)-N-(3-(imidazo[1,2-b]pyridazin-3-ylethynyl)phenyl)-4,5-dihydro-1H-pyrazole-1-carboxamide 2,2,2-trifluoroacetate]: the 50% inhibitory concentration (IC50) at human GST-RIPK1 stood at 10.1 nM. In addition, in assay [1], the half-maximal effective concentration (EC50) was 0.8 nM.
Consider `O=C(Nc1cccc(C#Cc2cnc3cccnn23)c1)N1N=CC[C@H]1c1cccc(F)c1` [Example 29, (S)-5-(3-fluorophenyl)-N-(3-(imidazo[1,2-b]pyridazin-3-ylethynyl)phenyl)-4,5-dihydro-1H-pyrazole-1-carboxamide 2,2,2-trifluoroacetate], for which the IC50 on human GST-RIPK1 worked out at 5.83 nM. In addition, in assay [1], the EC50 turned out to be 0.3 nM.
The like results for `O=C(Nc1cccc(C#Cc2cnc3cccnn23)c1)N1N=CC[C@@H]1c1cccc(F)c1` [Example 30, (R)-5-(3-fluorophenyl)-N-(3-(imidazo[1,2-b]pyridazin-3-ylethynyl)phenyl)-4,5-dihydro-1H-pyrazole-1-carboxamide 2,2,2-trifluoroacetate] were, in that order, 399 nM and 321 nM.
Turning to `O=C(Nc1cccc(C#Cc2cnc3cccnn23)c1)N1N=CCC1c1ccc(F)cc1` (stereo not shown) [Example 31, 5-(4-fluorophenyl)-N-(3-(imidazo[1,2-b]pyridazin-3-ylethynyl)phenyl)-4,5-dihydro-1H-pyrazole-1-carboxamide 2,2,2-trifluoroacetate], the IC50 at human GST-RIPK1 came to 10.2 nM. In addition, in assay [1], the concentration giving a half-maximal response (EC50) was 1.43 nM.
Regarding `O=C(Nc1cccc(C#Cc2cnc3cccnn23)c1)N1N=CC[C@H]1c1ccc(F)cc1` [Example 32, (S)-5-(4-fluorophenyl)-N-(3-(imidazo[1,2-b]pyridazin-3-ylethynyl)phenyl)-4,5-dihydro-1H-pyrazole-1-carboxamide 2,2,2-trifluoroacetate], the IC50 at human GST-RIPK1 is 4.83 nM. Besides, in assay [1], the EC50 was found to be 0.63 nM.
The like results for `O=C(Nc1cccc(C#Cc2cnc3cccnn23)c1)N1N=CC[C@@H]1c1ccc(F)cc1` [Example 33, (R)-5-(4-fluorophenyl)-N-(3-(imidazo[1,2-b]pyridazin-3-ylethynyl)phenyl)-4,5-dihydro-1H-pyrazole-1-carboxamide 2,2,2-trifluoroacetate] were, in that order, greater than 1000 nM and 32 nM.
On to `O=C(Nc1cccc(C#Cc2cnc3cccnn23)c1)N1N=CCC1c1cccc(Cl)c1` (stereo not shown) [Example 34, 5-(3-chlorophenyl)-N-(3-(imidazo[1,2-b]pyridazin-3-ylethynyl)phenyl)-4,5-dihydro-1H-pyrazole-1-carboxamide 2,2,2-trifluoroacetate], for which the IC50 at human GST-RIPK1 was found to be 18.9 nM. Besides, the concentration giving a half-maximal response (EC50) in assay [1] was found to be 43 nM.
`O=C(Nc1cccc(C#Cc2cnc3cccnn23)c1)N1N=CCC1c1ccc(Cl)cc1` (stereo not shown) [Example 35, 5-(4-chlorophenyl)-N-(3-(imidazo[1,2-b]pyridazin-3-ylethynyl)phenyl)-4,5-dihydro-1H-pyrazole-1-carboxamide 2,2,2-trifluoroacetate]: the IC50 at human GST-RIPK1 is 61.6 nM. In assay [1], the concentration giving a half-maximal response (EC50) was 3.87 nM.
Regarding `O=C(Nc1cccc(C#Cc2cnc3cccnn23)c1)N1N=CCC1c1cccnc1` (stereo not shown) [Example 36, N-(3-(imidazo[1,2-b]pyridazin-3-ylethynyl)phenyl)-5-(pyridin-3-yl)-4,5-dihydro-1H-pyrazole-1-carboxamide 2,2,2-trifluoroacetate], the half-maximal inhibitory concentration (IC50) at human GST-RIPK1 turned out to be 2.98 nM. The EC50 in assay [1] stood at 12 nM.
Turning to `O=C(Nc1cccc(C#Cc2cnc3cccnn23)c1)N1N=CCC1c1ccccn1` (stereo not shown) [Example 37, N-(3-(imidazo[1,2-b]pyridazin-3-ylethynyl)phenyl)-5-(pyridin-2-yl)-4,5-dihydro-1H-pyrazole-1-carboxamide 2,2,2-trifluoroacetate], at human GST-RIPK1, the half-maximal inhibitory concentration (IC50) amounted to 1.22 nM. The EC50 in assay [1] worked out at 1.84 nM.
On to `O=C(Nc1cccc(C#Cc2cnc3cccnn23)c1)N1N=CCC1c1ccncc1` (stereo not shown) [Example 38, N-(3-(imidazo[1,2-b]pyridazin-3-ylethynyl)phenyl)-5-(pyridin-4-yl)-4,5-dihydro-1H-pyrazole-1-carboxamide hydrochloride], for which the IC50 on human GST-RIPK1 worked out at 1.1 nM. For the same compound, in assay [1], the concentration giving a half-maximal response (EC50) was 106 nM.
For `O=C(Nc1cccc(C#Cc2cnc3cccnn23)c1)N1N=CCC1c1ccc2c(c1)OCO2` (stereo not shown) [Example 39, 5-(benzo[d][1,3]dioxol-5-yl)-N-(3-(imidazo[1,2-b]pyridazin-3-ylethynyl)phenyl)-4,5-dihydro-1H-pyrazole-1-carboxamide 2,2,2-trifluoroacetate], in that order: 4.9 nM and 2.8 nM.
